Source: patent publication US8961959B2, “Glucosylceramide synthase inhibitors and therapeutic methods using the same” (The Regents of the University of Michigan, priority 2011, dated 2015)
Entries after “also recorded” stand apart in the source; their conditions may differ.

Tests used:
C57BL/6 mice = assay: Organ GlcCer content in C57BL/6 mice after short term i.p. dosing; assay type: in vivo, mouse; details: for change in brain GlcCer levels: 10 mg/kg/day i.p. for 3 days, 12 h after last injection; for fall in brain GlcCer levels: 30 mg/kg q 12 h for 3 days i.p.; for liver and kidney GlcCer levels: i.p. 3 days; for brain GlcCer content, short term dosing: i.p. for 3 days, in words
Procedure: C57BL/6 mice were maintained on regular chow in specific-pathogen-free facilities. All animal studies were performed under the review of the University of Michigan Committee on the Use and Care of Animals and conformed to the National Institutes of Health Guide for the Care and Use of Laboratory Animals. Injection solutions were prepared from inhibitor-ethanol stock solution (100 mM) A portion of the stock solution was evaporated under a stream of N2 gas. Dried eliglustat tartrate (compound 3a) was directly dissolved into 1× phosphate buffered saline. […] The acidic solution was neutralized by mixing 100 μL of 10× phosphate buffered saline with 636.3 μL of water to bring the total volume to one ml. Inhibitor solutions were sterilized by passage through a […]. Inhibitor recovery after filtration was confirmed by UV spectrometry and exceeded 99%. For control injections, phosphate buffered saline containing the same amount of HCl was used. Inhibitors were given to 6 to 8 week old female or male C57BL/6 mice by intraperitoneal injection volume at 1% of body weight.
Lipid extractions of liver, kidney, and brain were performed as previously described (7). Briefly, frozen liver (about 0.5 g), two kidneys (about 0.3 g) and whole brain (about 0.4 g) were individually homogenized in sucrose buffer (250 mM sucrose, pH 7.4, 10 mM HEPES and 1 mM EDTA), at 0.2 g tissue/1 mL of sucrose buffer, with a Tri-R homogenizer. Each 0.8 mL of homogenate was mixed with 2 mL of methanol and 1 mL of chloroform, bath sonicated for 1 min and incubated at room temperature for 1 h. Tissue debris were removed by centrifugation at 2,400×gravity for 30 min. The pellets were re-extracted by mixing with 1 mL of methanol, 0.5 mL of chloroform and 0.4 mL of 0.9% NaCl (chloroform/methanol/0.9% NaCl, 1:2:0.8), incubated at room temperature for 1 h and centrifuged at 2,400×gravity for another 30 min. Two extracts were combined and mixed with 4.5 mL of chloroform and 1.2 mL of 0.9% NaCl (chloroform/methanol/0.9% NaCl, 2:1:0.8). After centrifugation at 800×gravity for 5 min, lower layer was washed with 3 mL of methanol and 2.4 mL of 0.9% NaCl. Second washing was carried with 3 mL of methanol, 2 mL of water and 0.4 mL of 0.9% NaCl followed by a 5 min centrifugation at 800×gravity. The resultant lower phase was collected and dried under a stream of N2 gas.
The analysis of neutral glycosphingolipids from mouse liver, kidney, and brain was processed after alkaline methanolysis. […] lipids were incubated with 2 mL of chloroform and 1 ml of 0.21N NaOH in methanol for 2 h (kidney) or 7.5 h (liver and brain) at RT. The lipid extract was normalized to 0.5 μmol of total phospholipid phosphate (liver and kidney) or 2 μmol of total phospholipid phosphate (brain) for high performance thin layer chromatography analysis. After alkaline methanolysis, the brain lipids were passed through a silica gel column (7). Borate-impregnated thin layer chromatography plates were developed in a two solvent system. Plates were first developed in chloroform/methanol (98:2, v/v). The plates loaded with kidney and liver lipids were then developed in chloroform/methanol/water (64:24:4, v/v/v), and brain lipids were further separated in chloroform/methanol/water (60:30:6, v/v/v). GlcCer levels were quantified by comparison to known standards.

[1] = target: T1, glucosylceramide synthase (GCS) (Canis lupus familiaris, UniProt A0A8I3MXG6); assay: GCS activity, broken cell (MDCK cell homogenate) assay; assay type: biochemical, canine
T1 construct: Madin-Darby canine kidney (MDCK) cell homogenates (120 μg of protein) were incubated; endogenous in cells; host or cells: MDCK (Madin-Darby canine kidney) cell homogenate
T1 sequence (A0A8I3MXG6 1-394): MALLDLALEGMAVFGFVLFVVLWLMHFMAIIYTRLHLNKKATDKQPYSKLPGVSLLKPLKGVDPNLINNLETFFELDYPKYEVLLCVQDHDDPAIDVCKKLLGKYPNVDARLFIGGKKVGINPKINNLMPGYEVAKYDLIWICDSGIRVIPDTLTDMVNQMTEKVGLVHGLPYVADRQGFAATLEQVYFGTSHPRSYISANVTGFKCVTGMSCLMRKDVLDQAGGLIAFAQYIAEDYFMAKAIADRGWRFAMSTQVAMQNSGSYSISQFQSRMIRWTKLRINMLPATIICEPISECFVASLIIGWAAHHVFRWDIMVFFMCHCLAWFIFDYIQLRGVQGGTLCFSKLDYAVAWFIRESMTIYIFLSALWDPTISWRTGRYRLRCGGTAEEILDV
Procedure: Enzyme activity was measured as described previously (9). Madin-Darby canine kidney (MDCK) cell homogenates (120 μg of protein) were incubated with uridine diphosphate-[^3H]glucose (100,000 cpm) and liposomes consisting of 85 μg of octanoylsphingosine, 570 μg of dioleoylphosphatidylcholine, and 100 μg of sodium sulfatide in a 200 μL reaction mixture and kept for 1 h at 37° C.

Row | SMILES | change in brain GlcCer levels (C57BL/6 mice) | fall in brain GlcCer levels (C57BL/6 mice) | liver and kidney GlcCer levels (C57BL/6 mice) | liver and kidney GlcCer levels (C57BL/6 mice; listed as eliglustat) | brain GlcCer content, short term dosing (C57BL/6 mice) | brain GlcCer content, short term dosing (C57BL/6 mice; listed as eliglustat tartrate) | IC50 [1] [nM] | inhibition of GCS ([1]; in words)
1 | CCCCCCCC(=O)N[C@H](CN1CCCC1)[C@H](O)c1ccc2c(c1)OCCO2 [Compound 3a, N-((1R,2R)-1-(2,3-dihydrobenzo-[b][1,4]dioxin-6-yl)-1-hydroxy-3-(pyrrolidin-1-yl)propan-2-yl)octanamide, reference compound] | without changes | without any changes | significantly lowered | lowered | failed to demonstrate any change | an effect not seen | 149 | 
2 | O=C(CC1Cc2ccccc2C1)N[C@H](CN1CCCC1)[C@H](O)c1ccc2c(c1)OCCO2 [Compound 3h, 2-(2,3-dihydro-1H-inden-2-yl)-N-((1R,2R)-1-(2,3-dihydrobenzo[b][1,4]dioxin-6-yl)-1-hydroxy-3-(pyrrolidin-1-yl)propan-2-yl)acetamide] | ten percent decrease | 17% |  |  | significant dose dependent decrease; also recorded: significantly lowered |  | 27 | low nanomolar concentrations
